Assay results published in patent US8883759B2, “Anti-tumor effect potentiator” (Taiho Pharmaceutical Co., Ltd., priority 2009, dated 2014).

Legend:
human dUTPase = human dUTPase (Homo sapiens (Human), UniProt P33316); assay: Human dUTPase inhibitory effect ([5-3H]dUMP production from [5-3H]dUTP); assay type: biochemical
Experimental: The inhibitory activity of these compounds of the present invention against human dUTPase was determined by measuring the production of [5-^3H]deoxyuridine monophosphate (hereinafter, referred to as [5-^3H]dUMP) from [5-^3H]deoxyuridine triphosphate (hereinafter, referred to as [5-^3H]dUTP) according to a method shown below.
Specifically, 0.2 mL in total of a solution containing 0.02 mL of 1 μM dUTP (including 588 Bq/mL [5-^3H]dUTP), 0.05 mL of a 0.2 M Tris buffer solution (pH 7.4), 0.05 mL of 16 mM magnesium chloride, 0.02 mL of 20 mM 2-mercaptoethanol, 0.02 mL of a 1% aqueous solution of fetal bovine serum-derived albumin, 0.02 mL of varying concentrations of test compound solutions or pure water as a control, and 0.02 mL of a solution of human dUTPase, which is expressed in E. coli and then purified, was incubated at 37° C. for 15 minutes. After the incubation, the solution was heated at 100° C. for 1 minute to terminate the reaction, followed by centrifugation at 15000 rpm for 2 minutes. An aliquot (150 μL) of the supernatant obtained by centrifugation was analyzed using an Atlantis dC18 column (manufactured by Waters Corp., 4.6×250 mm) and a high-performance liquid chromatograph (manufactured by Shimadzu Corp., Prominence). […]
The inhibitory activity of the test compound was determined according to the formula shown below. […]

[1] = system: human breast cancer cell line MX-1; assay: Enhancing activity for anti-tumor effect of TS-1 in nude mice with transplanted MX-1 (Test Example 2); assay type: in vivo, BALB/cA Jcl-nu mice; conditions: 200 mg/kg/day test drug + TS-1 8.3 mg/kg/day, oral, 14 days; MX-1 in nude mice; T/C on day 15 (FIG. 1)
Experimental: A human breast cancer cell line MX-1 was transplanted into the right-sided chest of 5- to 6-week-old male BALB/cA Jcl-nu mice. After transplantation, the major axis (mm) and minor axis (mm) of the tumor were measured, and the tumor volume (TV) was estimated by calculation. Using MiSTAT group separation program, the mice were then divided into individual groups so that the mean TV of each group is to be equal. The date at which mice were divided into the groups (n=5) was defined as day 0.
A test solution for tegafur/gimeracil/oteracil potassium (TS-1, manufactured by Taiho Pharmaceutical Co., Ltd.) single administration group, containing 0.5% hydroxypropylmethyl cellulose, 2.5% dimethylacetamide, 2.5% Tween 80, and 10% Cremophor as final concentrations, was prepared, provided at 8.3 mg/kg/day. The dose of TS-1 was represented by the amount of tegafur (FT). […]
TV on day 15 was measured, and relative tumor volume (RTV) was calculated. Then, T/C (%) was calculated according to a formula described below, and an anti-tumor effect was evaluated. […]

Sequence of human dUTPase (P33316 94-252): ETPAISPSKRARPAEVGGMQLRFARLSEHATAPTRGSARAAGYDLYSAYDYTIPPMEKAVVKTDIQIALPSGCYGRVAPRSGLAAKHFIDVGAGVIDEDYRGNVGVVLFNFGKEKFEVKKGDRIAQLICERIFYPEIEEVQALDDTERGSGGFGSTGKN

dUTPase inhibitory activity (in words) (human dUTPase; human dUTPase) | IC50 (human dUTPase; concentration inhibiting 50% of [5-3H]dUMP production by human dUTPase, 37° C., 15 minutes) | Structure (SMILES) | enhancing activity for anti-tumor effect of TS-1 [1]
strong | – | O=c1ccn(COCCCC2(NS(=O)(=O)c3cccc(OCC4CC4)c3)CC2)c(=O)[nH]1 [Comparative Compound 1, 3-(cyclopropylmethoxy)-N-(1-(3-((2,4-dioxo-3,4-dihydropyrimidin-1(2H)-yl)methoxy)propyl)cyclopropyl)benzenesulfonamide] | not observed
– | 610 nM | CC[C@@H](NS(=O)(=O)CCCn1ccc(=O)[nH]c1=O)c1cccc(OCC2CC2)c1 [Compound 19, (R)—N-(1-(3-(cyclopropylmethoxy)phenyl)propyl)-3-(2,4-dioxo-3,4-dihydropyrimidin-1(2H)-yl)propane-1-sulfonamide] | –
